≈ marks a conversion by molar mass, not a printed value.
tested on: S. aureus 29213; assay: Bacterial growth minimal inhibitory concentrations (microdilution, cation-adjusted Mueller-Hinton Broth, CLSI M7-A7); assay type: cell-based; settings: Staphylococcus aureus, 29213; microdilution in cation-adjusted Mueller-Hinton Broth
Description: Bacterial Growth Minimal Inhibitory Concentrations: Minimal inhibitory concentrations (MICs; mg/l) were determined in cation-adjusted MuellerHinton Broth by a microdilution method following the description given in “Methods for Dilution Antimicrobial Susceptibility Tests for Bacteria that Grow Aerobically”, Approved standard, 7th ed., Clinical and Laboratory Standards Institute (CLSI) Document M7-A7, Wayne, Pa., USA, 2006. Typical antibacterial test results are given in Table 1 hereafter (MIC in mg/l).

| Structure (SMILES) | MIC |
| --- | --- |
| Cn1c(=O)n(CCNC[C@H]2CN(c3ccc4c(n3)NC(=O)CS4)C(=O)O2)c(=O)c2cccc(Cl)c21 [Example 62, 8-chloro-1-methyl-3-(2-{[(S)-2-oxo-3-(3-oxo-3,4-dihydro-2H-pyrido[3,2-b][1,4]thiazin-6-yl)-oxazolidin-5-ylmethyl]-amino}-ethyl)-1H-quinazoline-2,4-dione] | ≤ 0.016 µg/mL |
| O=C1COc2ccc(N3C[C@H](CCCn4c(=O)[nH]c5c(Cl)cccc5c4=O)OC3=O)nc2N1 [Example 24, 8-chloro-3-{3-[(S)-2-oxo-3-(3-oxo-3,4-dihydro-2H-pyrido[3,2-b][1,4]oxazin-6-yl)-oxazolidin-5-yl]-propyl}-1H-quinazoline-2,4-dione] | ≤ 0.016 µg/mL |
| O=C1CSc2ccc(N3C[C@H](CCCn4c(=O)[nH]c5cccc(Cl)c5c4=O)OC3=O)cc2N1 [Example 18, 5-chloro-3-{3-[(S)-2-oxo-3-(3-oxo-3,4-dihydro-2H-benzo[1,4]thiazin-6-yl)-oxazolidin-5-yl]-propyl}-1H-quinazoline-2,4-dione] | ≤ 0.016 µg/mL |
| O=C1CSc2ccc(N3C[C@H](CNCCn4c(=O)c5cccc6c5n(c4=O)CCC6)OC3=O)nc2N1 [Example 67, 2-(2-{[(S)-2-oxo-3-(3-oxo-3,4-dihydro-2H-pyrido[3,2-b][1,4]thiazin-6-yl)-oxazolidin-5-ylmethyl]-amino}-ethyl)-6,7-dihydro-5H-pyrido[3,2,1-ij]quinazoline-1,3-dione] | ≤ 0.016 µg/mL |
| COc1ccc2[nH]c(=O)n(CCC[C@@H]3CN(c4ccc5c(c4)NC(=O)CS5)C(=O)O3)c(=O)c2c1 [Example 34, 6-methoxy-3-{3-[(R)-2-oxo-3-(3-oxo-3,4-dihydro-2H-benzo[1,4]-thiazin-6-yl)-oxazolidin-5-yl]-propyl}-1H-quinazoline-2,4-dione] | 0.063 µg/mL (≈ 0.131 µM) |
| Cn1c(=O)n(CCC[C@H]2CN(c3ccc4c(c3)NC(=O)CS4)C(=O)O2)c(=O)c2cccc(Cl)c21 [Example 31, 8-chloro-1-methyl-3-{3-[(S)-2-oxo-3-(3-oxo-3,4-dihydro-2H-benzo[1,4]thiazin-6-yl)-oxazolidin-5-yl]-propyl}-1H-quinazoline-2,4-dione] | ≤ 0.016 µg/mL |
| Cn1c(=O)n(CCNC[C@H]2CN(c3ccc4c(n3)NC(=O)CO4)C(=O)O2)c(=O)c2cccc(Cl)c21 [Example 69, 8-chloro-1-methyl-3-(2-{[(S)-2-oxo-3-(3-oxo-3,4-dihydro-2H-pyrido[3,2-b][1,4]oxazin-6-yl)-oxazolidin-5-ylmethyl]-amino}-ethyl)-1H-quinazoline-2,4-dione] | 0.031 µg/mL (≈ 0.0619 µM) |
| O=C1CSc2ccc(N3C[C@H](CCCn4c(=O)[nH]c5c(Cl)cccc5c4=O)OC3=O)nc2N1 [Example 22, 8-chloro-3-{3-[(S)-2-oxo-3-(3-oxo-3,4-dihydro-2H-pyrido[3,2-b][1,4]thiazin-6-yl)-oxazolidin-5-yl]-propyl}-1H-quinazoline-2,4-dione] | ≤ 0.016 µg/mL |
| Cc1cccc2c1c(=O)n(CCNC[C@H]1CN(c3ccc4c(n3)NC(=O)CS4)C(=O)O1)c(=O)n2C [Example 58, 1,5-dimethyl-3-(2-{[(S)-2-oxo-3-(3-oxo-3,4-dihydro-2H-pyrido[3,2-b][1,4]thiazin-6-yl)-oxazolidin-5-ylmethyl]-amino}-ethyl)-1H-quinazoline-2,4-dione] | ≤ 0.016 µg/mL |

The remaining lines, values ahead:

| MIC | Structure (SMILES) |
| --- | --- |
| ≤ 0.016 µg/mL | O=C1CSc2ccc(N3C[C@H](CCCn4c(=O)[nH]c5ccccc5c4=O)OC3=O)cc2N1 [Example 1, 3-{3-[(S)-2-oxo-3-(3-oxo-3,4-dihydro-2H-benzo[1,4]thiazin-6-yl)-oxazolidin-5-yl]-propyl}-1H-quinazoline-2,4-dione] |
| 0.125 µg/mL | Cn1c(=O)n(CC(O)CC[C@@H]2CN(c3ccc4c(n3)NC(=O)CS4)C(=O)O2)c(=O)c2ccccc21 (mixture of isomers) [Example 50, 3-{(RS)-2-hydroxy-4-[(R)-2-oxo-3-(3-oxo-3,4-dihydro-2H-pyrido[3,2-b][1,4]thiazin-6-yl)-oxazolidin-5-yl]-butyl}-1-methyl-1H-quinazoline-2,4-dione] |
| ≤ 0.016 µg/mL | Cc1cccc2c(=O)n(CCC[C@H]3CN(c4ccc5c(n4)NC(=O)CS5)C(=O)O3)c(=O)[nH]c12 [Example 14, 8-methyl-3-{3-[(S)-2-oxo-3-(3-oxo-3,4-dihydro-2H-pyrido[3,2-b][1,4]thiazin-6-yl)-oxazolidin-5-yl]-propyl}-1H-quinazoline-2,4-dione] |
| 0.063 µg/mL (≈ 0.129 µM) | O=C1CSc2ccc(N3C[C@@H](CCCn4c(=O)[nH]c5ccc(Cl)cc5c4=O)OC3=O)cc2N1 [Example 25, 6-chloro-3-{3-[(R)-2-oxo-3-(3-oxo-3,4-dihydro-2H-benzo[1,4]-thiazin-6-yl)-oxazolidin-5-yl]-propyl}-1H-quinazoline-2,4-dione] |
| 0.5 µg/mL (≈ 1.07 µM) | O=C1CSc2ccc(N3C[C@@H](CNCCn4c(=O)[nH]c5ccccc5c4=O)OC3=O)nc2N1 [Example 53, 3-(2-{[(R)-2-oxo-3-(3-oxo-3,4-dihydro-2H-pyrido[3,2-b][1,4]thiazin-6-yl)-oxazolidin-5-ylmethyl]-amino}-ethyl)-1H-quinazoline-2,4-dione] |
| 0.031 µg/mL (≈ 0.0535 µM) | COC(=O)/C=C/c1ccc2c(=O)n(CCNCCC3CN(c4ccc5c(c4)NC(=O)CS5)C(=O)O3)c(=O)n(C)c2c1 (racemic) [Example 63, rac-(E)-3-[1-methyl-2,4-dioxo-3-(2-{2-[2-oxo-3-(3-oxo-3,4-dihydro-2H-benzo[1,4]thiazin-6-yl)-oxazolidin-5-yl]-ethylamino}-ethyl)-1,2,3,4-tetrahydro-quinazolin-7-yl]-acrylic acid methyl ester] |
| ≤ 0.016 µg/mL | COc1c(F)c(F)cc2c(=O)n(CCC[C@H]3CN(c4ccc5c(c4)NC(=O)CS5)C(=O)O3)c(=O)n(C3CC3)c12 [Example 43, 1-cyclopropyl-6,7-difluoro-8-methoxy-3-{3-[(S)-2-oxo-3-(3-oxo-3,4-dihydro-2H-benzo[1,4]thiazin-6-yl)-oxazolidin-5-yl]-propyl}-1H-quinazoline-2,4-dione] |
| 0.063 µg/mL (≈ 0.14 µM) | Cc1cccc2c(=O)n(CCC[C@@H]3CN(c4ccc5c(n4)NC(=O)CO5)C(=O)O3)c(=O)[nH]c12 [Example 15, 8-methyl-3-{3-[(R)-2-oxo-3-(3-oxo-3,4-dihydro-2H-pyrido[3,2-b][1,4]oxazin-6-yl)-oxazolidin-5-yl]-propyl}-1H-quinazoline-2,4-dione] |
| 0.031 µg/mL (≈ 0.0642 µM) | COc1cccc2c(=O)n(CCC[C@@H]3CN(c4ccc5c(c4)NC(=O)CS5)C(=O)O3)c(=O)[nH]c12 [Example 36, 8-methoxy-3-{3-[(R)-2-oxo-3-(3-oxo-3,4-dihydro-2H-benzo[1,4]-thiazin-6-yl)-oxazolidin-5-yl]-propyl}-1H-quinazoline-2,4-dione] |
| 0.25 µg/mL (≈ 0.519 µM) | Cc1cccc2[nH]c(=O)n(CCNC[C@@H]3CN(c4ccc5c(c4)NC(=O)CS5)C(=O)O3)c(=O)c12 [Example 59, 5-methyl-3-(2-{[(R)-2-oxo-3-(3-oxo-3,4-dihydro-2H-benzo[1,4]thiazin-6-yl)-oxazolidin-5-ylmethyl]-amino}-ethyl)-1H-quinazoline-2,4-dione] |

same assay, conditions: microdilution in cation-adjusted Mueller-Hinton Broth

| MIC for S. aureus 29213 | Structure (SMILES) |
| --- | --- |
| 0.031 µg/mL | O=C1CSc2ccc(N3C[C@@H](CNCCn4c(=O)c5cccc6c5n(c4=O)CCC6)OC3=O)cc2N1 [Example 66, 2-(2-{[(R)-2-oxo-3-(3-oxo-3,4-dihydro-2H-benzo[1,4]thiazin-6-yl)-oxazolidin-5-ylmethyl]-amino}-ethyl)-6,7-dihydro-5H-pyrido[3,2,1-#]quinazoline-1,3-dione] |

Reference: US8916573B2, “Quinazoline-2,4-dione derivatives” (Actelion Pharmaceuticals Ltd., priority 2011, dated 2014)
